Results from US10239923B2, “Specific amyloid beta binding peptides and the use of same for treating and diagnosing alzheimer's dementia” (Forschungszentrum Juelich GmbH, priority 2015, dated 2019).
Square brackets hold non-standard residues; d marks the D form. Peptide text beside a SMILES is read from it.

Experiments:
Aβ1-42 [1] = biological target: T1, Aβ1-42 (Homo sapiens, UniProt P05067); test: ThT test, modulation of Aβ1-42 aggregation; assay type: biochemical; conditions: 10 μM Aβ1-42, equimolar peptide, versus Aβ1-42 alone = 100%
T1 sequence (P05067 672-713 limits assumed): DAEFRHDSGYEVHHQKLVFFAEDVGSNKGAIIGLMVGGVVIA
Excerpt: FIG. 3: The average relative fluorescence from seven independently performed ThT experiments with standard deviation is shown. The dye Thioflavin T (ThT) binds to β-pleated sheet structures in the batch and thereupon changes its fluorescence spectrum. […] The time in which the logarithmic rise of the fluorescence signal transitioned into a stationary phase was set to 100%.

[2] = biological target: T2, Aβ1-42 species of different size (Homo sapiens, UniProt P05067); test: Density gradient centrifugation, tris-tricine SDS gel and silver staining of Aβ1-42 species; assay type: biochemical
T2 sequence (P05067 672-713 limits assumed): as above
Method: The batch was then incubated either with or without addition of peptide for a further 40 minutes and was then placed on an iodixanol density gradient. The gradient was then centrifuged, wherein the contents of the sample (Aβ1-42 species of different size) diffused within the gradient in accordance with their size and shape. The gradient was fractionated after centrifugation into 15 fractions (1-15), and the first 14 individual fractions were applied to a tris-tricine SDS gel. The contents per fraction were separated electrophoretically. […] The batch was then incubated either without (A) or with addition of different concentrations of Mosd1 (B=10 μM Mossd1; C=20 μM Mosd1; D=40 μM Mosd1; E=80 μM Mosd1) for a further 40 minutes and was then placed on an iodixanol density gradient. The gradient was then centrifuged, wherein the contents of the sample (Aβ1-42 species of different size) diffused within the gradient in accordance with their size and shape. The gradient was fractionated after centrifugation (1-15), and the individual fractions were applied to a tris-tricine SDS gel. The contents per fraction were separated electrophoretically.

[3] = biological target: T2, Aβ1-42 species of different size; test: Quantification of density gradient fractions by RP-HPLC; assay type: biochemical
Excerpt: Certain further embodiments of the invention including a method will be presented hereinafter. What is known as the QIAD test (quantitative determination of interference with Aβ aggregate size distribution) can be used for the quantitative analysis of active substances. The method for quantitative analysis of the influence of an active substance on the particle size distribution of amyloid peptides and/or proteins in a sample has the following steps: A beta is first left to aggregate under controlled conditions, so that different A beta aggregates form. The conditions are selected so that a particularly large amount of small, particularly cytotoxic A beta oligomers are formed. […] This change is determined quantitatively. […] Due to the QIAD method, the increase or decrease of A beta aggregates of a specific particle size is measured. […] The concentration of A beta in the respective fractions is then determined by a complete denaturing of the A beta species during a reversed-phase (RP-)HPLC performed subsequently to the fractionation. […] Eluting A beta is detected by means of UV absorption at 215 nm. […] The mean value from a number of experiments carried out independently of one another (for example six) with the resultant standard deviation can be calculated for each fraction. […]
Samples of each fraction from the experiment shown in FIG. 5 were separated and quantified by means of reversed-phase HPLC. […]

Aβ1-42 [4] = biological target: T1, Aβ1-42; test: TEM of Aβ1-42 incubated with and without Mosd1; assay type: biochemical; conditions: 10 μM Aβ1-42 with 10 μM Mosd1, 24 hours, room temperature
Excerpt: The scale bars correspond to 0.25 μm.

PC-12 cells = test: MTT reduction test, Aβ1-42-induced cell toxicity; assay type: cell-based; conditions: batch containing only Mosd1, 24 hours, 37° C.
Method: The samples were placed in the culture medium of the cells and were incubated over 24 hours with the cells at 37° C. The viability of the cells was then determined on the basis of an MTT test. Here, a metabolic reactant was supplied to the cells, which reactant could be converted by metabolically active cells (living cells). Formazan crystals are the product of this conversion and can be dissolved. The coloration of the medium after solubilization corresponds to the conversion rate of the reactant and therefore the viability of the cells. Untreated cells (medium, white chequered pattern) served as living control, and the proportion of vital cells was defined as 100%. The values of the other batches were normalized to this value.

[5] = system: Neuro-2a cells stably transfected with human APP695; test: Influence on APP-expressing cells; assay type: cell-based, murine; conditions: incubation with 10 μM or 100 μM Mosd1
Method: FIG. 9: The murine neuroblastoma cell line Neuro-2a serves as a model for neuronal cells and is thus suitable for analyzing the symptoms of AD. […] In this way, the influence of naturally occurring Aβ1-42 species can be examined directly in neuronal cells. In the experiment, Neuro-2a cells were cultivated without APP parallel to those with the APP transfection. […] By incubation with 10 μM or 100 μM Mosd1, however, this pathological phenotype can be reversed, and the cells develop in accordance with the physiological phenotype corresponding to wild-type Neuro-2a cells. This means that the cell number increases and the cells accumulate, have a polygonal shape and form numerous cell contact points and spurs (middle and right-hand image).

[6] = 80 μM Aβ1-42 pre-incubated […], 40 μM peptide for 40 minutes

In the case of CSCC[C@@H](NC(=O)[C@@H](Cc1c[nH]cn1)NC(=O)[C@@H](Cc1ccc(O)cc1)NC(=O)[C@@H](CO)NC(=O)[C@H](NC(=O)[C@@H](CC(C)C)NC(=O)[C@@H](Cc1ccc(O)cc1)NC(=O)[C@@H](CO)NC(=O)[C@H](N)Cc1ccc(O)cc1)[C@H](C)O)C(=O)N[C@@H](C(=O)N[C@H](Cc1c[nH]c2ccccc12)C(=O)N[C@H](CCCNC(=N)N)C(N)=O)C(C)C [Mosd1] (H-[dY][dS][dY][dL][dT][dS][dY][dH][dM][dV][dW][dR]-NH2), the “relative ThT fluorescence (formation of β-pleated sheet structures)” value (Aβ1-42 [1]) is reported as “reduce the relative fluorescence”, the “oligomeric Aβ1-42 species (fractions 4-7)” value [2, 6] is reported as “reduce” and the “proportions of high-molecular Aβ1-42 species (fractions 10-14)” value [2, 6] is reported as “increase”. For the same molecule, the “signal strength in fractions 1-2 (monomeric Aβ)” value ([2]; concentrations higher than 20 μM Mosd1) was “reduction of the signal strength”, the “proportion of small Aβ1-42 species and toxic oligomers” value ([2]; higher concentrations, 40 μM and 80 μM Mosd1, 80 μM Aβ1-42) was “reduce the proportion of small Aβ1-42 species and toxic oligomers considerably” and the “proportion of toxic oligomers (fractions 4-7)” value ([2]; lower concentrations, 10 μM and 20 μM Mosd1, 80 μM Aβ1-42) was “reduce the proportion of toxic oligomers”. For the same molecule, the “concentration of high-molecular Aβ species (fractions 11-14)” value ([3]; 10-80 μM Mosd1, 80 μM Aβ1-42) was “rises”, the “concentrations of Aβ in the fractions which contained the toxic oligomers” value ([3]; 10-80 μM Mosd1, 80 μM Aβ1-42, 3 independent experiments) was “decrease with increasing concentration of Mosd1” and the “aggregate morphology in TEM” value (Aβ1-42 [4]) was “formation of large, high-molecular aggregates”. For the same molecule, the “viability of PC-12 cells, peptide alone” value (PC-12 cells) was “no influence” and the “pathological phenotype of APP-expressing cells” value [5] was “reversed”.
